Counter-ions that a name gives are not always drawn. Like-named read-outs stand apart in the source and are kept apart here.
Columns and labels:
[1] = biological target: T1, 20S Human Erythrocyte Proteasome (HEP) (Homo sapiens, UniProt P20618+P28074); assay: Chymotrypsin-like activity of 20S Human Erythrocyte Proteasome (HEP), IC50 determination; format: biochemical; conditions: assay of Example C, inhibition of HEP
T1 construct: 20S Human Erythrocyte Proteasome (HEP), purchased from Immatics Biotechnologies Inc; purchased Immatics Biotechnologies Inc., Tübingen, Germany; host or cells: human erythrocytes (natural source)
How it was run: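 20S proteasome at 0.2 μg/mL (about 0.6 nM catalytic sites) in 20 mM Tris with 0.04% SDS, preincubated 15 min at 37° C with inhibitor before Suc-LLVY-AMC (100 μM final). AMC fluorescence read in the linear range; triplicates, IC50 from concentration series.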

[2] = biological target: T2, proteasome in Molt-4 cells (human leukemia) (Homo sapiens, UniProt P20618+P28074); format: cell-based
T2 sequence (P28074 60-263): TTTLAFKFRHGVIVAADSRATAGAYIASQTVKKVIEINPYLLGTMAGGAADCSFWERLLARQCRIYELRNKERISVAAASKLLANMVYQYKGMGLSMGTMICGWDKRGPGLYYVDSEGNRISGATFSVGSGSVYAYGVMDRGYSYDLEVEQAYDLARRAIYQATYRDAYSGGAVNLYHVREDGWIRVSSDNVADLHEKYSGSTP
T2 sequence (P20618 29-241): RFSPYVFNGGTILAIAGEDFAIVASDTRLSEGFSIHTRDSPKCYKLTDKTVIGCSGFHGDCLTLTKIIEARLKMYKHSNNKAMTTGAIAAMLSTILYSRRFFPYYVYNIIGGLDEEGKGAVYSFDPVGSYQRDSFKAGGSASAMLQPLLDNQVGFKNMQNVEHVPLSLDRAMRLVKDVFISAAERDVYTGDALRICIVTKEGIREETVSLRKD
Description: Cellular Assay for Chymotrypsin-like activity of Proteasome in Molt-4 Cell Line
The chymotrypsin-like activity of proteasome in Molt-4 cells (human leukemia) was assayed according to the following procedure. A brief description of the method was published previously (Harding et al., J. Immunol., 1995, 155, 1767).
Molt-4 cells were washed and resuspended in HEPES-buffered Saline (5.4 mM KCl, 120 mM NaCl, 25 mM Glucose, 1.5 mM MgSO4, 1 mM Na pyruvate, 20 mM Hepes) and plated in 96-well microtiter white plates to a final concentration of 6×10^6 cells/mL. Then various 5× proteasome inhibitor concentrations (or diluted DMSO for controls), prepared from 250×DMSO solutions by diluting 50-fold using HEPES-buffered saline, were added to the plate to a final 1× concentration. After 15 minutes incubation at 37° C., a fluorimetric cell permeable substrate (MeOSuc-FLF-AFC) (methoxysuccinyl-Phe-Leu-Phe-7-amido-4-trifluoromethylcoumarin) purchased from Enzyme Systems Products, catalogue number AFC-88, was added to each well at a final concentration of 25 μM from a stock solution of 20 mM in DMSO. Reaction volumes were 100 μl per well.
The concentration of free AFC was monitored every 1.5 min for 30 min ([…]) on a Polastar Optima, BMG Labtechnologies microplate reader, using an excitation wavelength of 390 nm and emission wavelength of 520 nm. Proteasome activity was determined under conditions in which substrate hydrolysis increased linearly with time and the change in fluorescent signal was proportional to the concentration of free AFC.
Determination of EC50 Values for Proteasome Inhibitors in MOLT-4 Cell Line
Inhibition of chymotrypsin-like activity of proteasome in Molt-4 cells was determined by incubating cells with various concentrations of putative inhibitors for 15 minutes at 37° C. prior to the addition of substrate. Each experimental condition was evaluated in triplicate, and replicate experiments were performed for the inhibitors described herein.

[3] = assay of Example E, inhibition of MOLT4; read-out: MOLT4 (EC50)

CCCCCCCCCC(=O)N[C@@H](CNC(=O)c1ccc(C)cc1)C(=O)N[C@@H](CC(C)C)B(O)O [E.1.16, Boronic acid, [(1R)-1-[[(2S)-3-[(4-methylbenzoyl)amino]-2-[(decanoylamino)]-1-oxopropyl]amino]-3-methylbutyl]]
IC50 [1]: < 10 nM | EC50 [2, 3]: < 200 nM

CC(C)C[C@H](NC(=O)[C@H](CCCNC(=N)N[N+](=O)[O-])NC(=O)CCCCCCCCCN1C(=O)c2ccccc2C1=O)B1O[C@@H]2C[C@@H]3C[C@@H](C3(C)C)[C@]2(C)O1 [D.2, 10-(1,3-Dioxo-1,3-dihydro-isoindol-2-yl)-decanamide, N-[(1S)-1-[[[(1R)-1-[(3aS,4S,6S,7aR)-hexahydro-3a,5,5-trimethyl-4,6-methano-1,3,2-benzodioxaborol-2-yl]-3-methylbutyl]amino]carbonyl]-4-[[imino(nitroamino)methyl]amino]butyl]-;]
IC50 [1]: < 10 nM | EC50 [2, 3]: < 200 nM

CC(C)C[C@H](NC(=O)[C@H](CCCNC(=N)N[N+](=O)[O-])NC(=O)c1ccc2ccccc2c1)B(O)O [E.1.4, Boronic acid, [(1R)-1-[[(2S)-5-[[imino(nitroamino)methyl]amino]-2-[(2-naphthoyl)amino]-1-oxopentyl]amino]-3-methylbutyl]]
IC50 [1]: < 10 nM | EC50 [2, 3]: 200 to 2000 nM

Cc1ccc(C)c(OCCCC(C)(C)C(=O)N[C@@H](CCCNC(=N)N[N+](=O)[O-])C(=O)N[C@@H](CC(C)C)B(O)O)c1 [D.7.17, Boronic acid, [(1R)-1-[[(2S)-5-[[imino(nitroamino)methyl]amino]-2-[[5-(2,5-dimethylphenoxy)-2,2-dimethylpentanoyl]amino]-1-oxopentyl]amino]-3-methylbutyl]]
IC50 [1]: < 10 nM | EC50 [2, 3]: 200 to 2000 nM

CC(C)C[C@H](NC(=O)[C@@H](NC(=O)c1cccc(-c2cccnc2)c1)[C@@H](C)O)B(O)O [E.3.9, Boronic acid, [(1R)-1-[[(2S,3R)-3-hydroxy-2-[(3-pyridin-3-yl-benzoyl)amino]-1-oxobutyl]amino]-3-methylbutyl], hydrochloride salt]
IC50 [1]: < 10 nM | EC50 ([2]; read-out: MOLT4 (EC50); assay of Example E, inhibition of MOLT4): < 200 nM

CCCCCCCCCC(=O)N[C@@H](CCCNC(=N)N[N+](=O)[O-])C(=O)N[C@@H](CC(C)C)B1O[C@@H]2C[C@@H]3C[C@@H](C3(C)C)[C@]2(C)O1 [D.3.1, Decanamide,N-[(1S)-1-[[[(1R)-1-[(3aS,4S,6S,7aR)-hexahydro-3a,5,5-trimethyl-4,6-methano-1,3,2-benzodioxaborol-2-yl]-3-methylbutyl]amino]carbonyl]-4-[[imino(nitroamino)methyl]amino]butyl]]
IC50 [1]: < 10 nM | EC50 [2, 3]: < 200 nM

CCCCCCCCCCC(=O)N[C@@H](CCCNC(=N)N[N+](=O)[O-])C(=O)N[C@@H](CC(C)C)B1O[C@@H]2C[C@@H]3C[C@@H](C3(C)C)[C@]2(C)O1 [D.3.129, Undecanamide,N-[(1S)-1-[[[(1R)-1-[(3aS,4S,6S,7aR)-hexahydro-3a,5,5-trimethyl-4,6-methano-1,3,2-benzodioxaborol-2-yl]-3-methylbutyl]amino]carbonyl]-4-[[imino(nitroamino)methyl]amino]butyl]]
IC50 [1]: < 10 nM | EC50 [2, 3]: < 200 nM

CCCCOCC(=O)N[C@@H](CCCNC(=N)N[N+](=O)[O-])C(=O)N[C@@H](CC(C)C)B(O)O [E.1.7, Boronic acid, [(1R)-1-[[(2S)-5-[[imino (nitroamino)methyl]amino]-2-[(2-butoxyacetyl)amino]-1-oxopentyl]amino]-3-methylbutyl]]
IC50 [1]: < 10 nM | EC50 [2, 3]: 2000 to 10000 nM

CCOc1ccc(C(=O)N[C@@H](CCCNC(=N)N[N+](=O)[O-])C(=O)N[C@@H](CC(C)C)B(O)O)cc1 [D.7.31, Boronic acid, [(1R)-1-[[(2S)-5-[[imino(nitroamino)methyl]amino]-2-[(4-ethoxybenzoyl)amino]-1-oxopentyl]amino]-3-methylbutyl]]
IC50 [1]: < 10 nM | EC50 [2, 3]: > 10000 nM

Reference: patent US8546608B2, “Proteasome inhibitors and methods of using the same” (Cephalon, Inc., priority 2003, dated 2013)
